Experimental data as given in patent EP4582080A1, “DISPENSER FOR MUCOSAL ADMINISTRATION COMPRISING 2-DEOXY-GLUCOSE OR ANALOGUES THEREOF” (G.ST Antivirals GmbH, priority 2024, dated 2025).

Tests used:
[1] = Imine (Schiff's base) formation of 2-DG with L-lysine in buffer; type: physicochemical
Method: The present invention is further illustrated by the following figures and examples, without being restricted thereto. • Fig. 1: Imine formation of 2-deoxy-D-glucose (2-DG) with L-lysine in citric acid•Na2HPO4 buffer (pH 7) at different 2-DG concentrations incubated at 37 °C. Indicated values are means (n=4) ± SEM. • Fig. 2: Imine formation of 2-deoxy-D-glucose (2-DG, 35mg/mL) with L-lysine (O.lmg/mL) in citric acid•Na2HPO4 buffer at different pH values incubated at 37 °C. Indicated values are means (n=4) ± SEM. • Fig. 3: Imine formation of 2-deoxy-D-glucose (2-DG, 35mg/mL) with L-lysine (O.lmg/mL) in citrate buffer at different pH values incubated at 37 °C. Indicated values are means (n=4) ± SEM. • Fig. 4: Imine formation of 2-deoxy-D-glucose (2-DG, 35mg/mL) with L-lysine (O.lmg/mL) in tartrate buffer at different pH values incubated at 37 °C. Indicated values are means (n=4) ± SEM. • Fig. 5: Imine formation of 2-deoxy-D-glucose (2-DG, 35mg/mL) with L-lysine (O.lmg/mL) in maleate buffer at different pH values incubated at 37 °C. Indicated values are means (n=4) ± SEM. • Fig. 6: Mucus penetration of 2-deoxy-D-glucose (2-DG), 2-fluoro-2-deoxy-D-glucose (2-FDG) or 2-fluoro-2-deoxy-D-mannose (2-FDM) (all 35mg/mL) in citrate buffer at pH5 and pH7, incubated for 30min at 37 °C. […]

[2] = Mucus penetration through mucus on a semipermeable membrane, measured via mass spectrometry; type: in vitro ADME; settings: 35mg/mL in citrate buffer, pH5 versus pH7, 30min at 37 °C (Fig. 6)
Method: The present invention is further illustrated by the following figures and examples, without being restricted thereto. • Fig. 1: Imine formation of 2-deoxy-D-glucose (2-DG) with L-lysine in citric acid•Na2HPO4 buffer (pH 7) at different 2-DG concentrations incubated at 37 °C. Indicated values are means (n=4) ± SEM. • Fig. 2: Imine formation of 2-deoxy-D-glucose (2-DG, 35mg/mL) with L-lysine (O.lmg/mL) in citric acid•Na2HPO4 buffer at different pH values incubated at 37 °C. Indicated values are means (n=4) ± SEM. • Fig. 3: Imine formation of 2-deoxy-D-glucose (2-DG, 35mg/mL) with L-lysine (O.lmg/mL) in citrate buffer at different pH values incubated at 37 °C. Indicated values are means (n=4) ± SEM. • Fig. 4: Imine formation of 2-deoxy-D-glucose (2-DG, 35mg/mL) with L-lysine (O.lmg/mL) in tartrate buffer at different pH values incubated at 37 °C. Indicated values are means (n=4) ± SEM. • Fig. 5: Imine formation of 2-deoxy-D-glucose (2-DG, 35mg/mL) with L-lysine (O.lmg/mL) in maleate buffer at different pH values incubated at 37 °C. Indicated values are means (n=4) ± SEM. • Fig. 6: Mucus penetration of 2-deoxy-D-glucose (2-DG), 2-fluoro-2-deoxy-D-glucose (2-FDG) or 2-fluoro-2-deoxy-D-mannose (2-FDM) (all 35mg/mL) in citrate buffer at pH5 and pH7, incubated for 30min at 37 °C.
We measured the mucus penetration potential in the following manner: After applying mucus onto a semipermeable membrane, formulations containing 2-DG or analogues at indicated pH were applied onto the mucus. Penetrated 2-DG or analogues was measured via mass spectrometry.

| Mucus penetration [2] | SMILES | Imine formation ([1]; 2-DG 35mg/mL, L-lysine (O.lmg/mL), acidic pH (pH < 7.0) in citric acid•Na2HPO4, citrate, tartrate, maleate buffers, 37 °C (Fig. 2-5)) | Imine formation ([1]; with L-lysine in citric acid•Na2HPO4 buffer (pH 7), different 2-DG concentrations, 37 °C (Fig. 1)) |
| --- | --- | --- | --- |
| increased mucus penetration properties | O=CC[C@@H](O)[C@H](O)[C@H](O)CO [2-DG, 2-deoxy-D-glucose] | distinct lowering in the formation of Schiff's bases | lead to the formation of Schiff's bases (imines) |
| increased mucus penetration properties | O=C[C@H](F)[C@@H](O)[C@H](O)[C@H](O)CO [2-FDG, 2-fluoro-2-deoxy-D-glucose] |  |  |
| increased mucus penetration properties | O=C[C@@H](F)[C@@H](O)[C@H](O)[C@H](O)CO [2-FDM, 2-fluoro-2-deoxy-D-mannose] |  |  |
